These results are taken from patent US8535731B2, “Use of extracts of the Cassia alata plant” (BASF Beauty Care Solutions France S.A.S., priority 2000, dated 2013).

The assay deals with human keratinocytes. Description: Inhibition of apoptosis induced by growth factor deficiency, cell count and BrdU ELISA of cytoplasmic DNA fragments. The assay is classed as cell-based. Conditions: 30 ng/ml, percent of control. The method, then: The ability of the plant extracts of Cassia alata to prevent apoptosis induced by a deficiency of growth factors in human skin cells was investigated. The test was conducted in vitro on human fibroblasts and human keratinocytes. The human cells were cultivated in a nutrient medium (DMEM=Dulbecco […] from Life Technologie S.a.r.l.) containing 10% of foetal calf serum (from Dutcher). Bromodeoxyuridine (BrdU) was added to this nutrient medium. It was incorporated in the DNA and was subsequently used to detect the DNA fragments in the cytoplasm. After two days' incubation, the nutrient medium was replaced by nutrient medium (DMEM) with no foetal calf serum. The active substance to be tested was added. […] For comparison, a cell sample was incubated without any active substance to be tested (quantities and concentrations shown in Tables 5 and 6).
After incubation for one or two days at 37° C., the cells were recovered by trypsination using the Dunnebacke and Zitcer method described in Cell and Tissue Culture, Ed.: J. Paul, Churchill Livingstone, 1975, p. […] After the trypsin treatment, the cells were centrifuged and counted. The BrdU content in DNA fragments from the cytoplasm was then determined by the ELISA Test (ELISA Kit from Roche). […]

For “EGF: known growth factor Epidermal Growth Factor, polypeptide of 53 amino acids”, the Cell counting is given as 121% and the “Content of DNA fragments in the cytoplasm” value came out at 32%.
